Converted amounts (≈) assume the structure as drawn.
Experiments:
Experiment in all cases: ≥ marks a high value that may be exact or a test limit, other limits are often not marked, values filed in µg/mL are converted to µM
[1] = system: Aspergillus fumigatus KCTC 4165
[2] = system: Bacillus subtilis KCTC 1918
[3] = system: Candida albicans TIMM 1768
[4] = system: Escherichia coli KCTC 1682
[5] = system: Pseudomonas aeruginosa KCTC 1637
[6] = system: Salmonella typhimurium KCTC 1926
[7] = system: Staphylococcus aureus KCTC 1621
[8] = system: Streptococcus pyogenes KCTC 3096
Aerococcus viridans = system: Aerococcus viridans
Bacillus megaterium = system: Bacillus megaterium
Enterococcus faecalis = system: Enterococcus faecalis
Escherichia coli 1106 = system: Escherichia coli 1106
Escherichia coli D22 = system: Escherichia coli D22
Escherichia coli D31 = system: Escherichia coli D31
Micrococcus luteus = system: Micrococcus luteus
[9] = system: Pseudoalteromonas carrageenovora ATCC 43555
Pseudomonas alginovora = system: Pseudomonas alginovora
Salmonella typhimurium = system: Salmonella typhimurium
Staphylococcus aureus = system: Staphylococcus aureus

| MIC [1] | MIC [2] | MIC [3] | MIC [4] | MIC [5] | MIC [6] | MIC [7] | MIC [8] | MIC (Aerococcus viridans) | MIC (Bacillus megaterium) | MIC (Enterococcus faecalis) | MIC (Escherichia coli 1106) | MIC (Escherichia coli D22) | MIC (Escherichia coli D31) | MIC (Micrococcus luteus) | MIC [9] | MIC (Pseudomonas alginovora) | MIC (Salmonella typhimurium) | MIC (Staphylococcus aureus) | SMILES |
| --- | --- | --- | --- | --- | --- | --- | --- | --- | --- | --- | --- | --- | --- | --- | --- | --- | --- | --- | --- |
| ≥ 100 µM | ≥ 50 µM | ≥ 50 µM | ≥ 50 µM | 12.5 µM (≈ 26.8 µg/mL) | 12.5 µM (≈ 26.8 µg/mL) | ≥ 50 µM | ≥ 50 µM |  |  |  |  |  |  |  |  |  |  |  | CCC(C)C(NC(=O)C(CCCCN)NC(=O)C(CCCCN)NC(=O)C(CC(C)C)NC(=O)C(CCCCN)NC(=O)C(CCC(=O)O)NC(=O)CN)C(=O)NCC(=O)NC(CCC(N)=O)C(=O)NC(CCCCN)C(=O)NC(C(=O)NC(CCCCN)C(=O)NC(CC(N)=O)C(=O)NC(Cc1ccccc1)C(=O)NC(Cc1ccccc1)C(=O)NC(CCC(N)=O)C(=O)NC(CCCCN)C(=O)NC(CC(C)C)C(=O)O)C(C)CC (centres undefined) [GEKLKKIGQKIKNFFQKL] |
|  |  |  |  |  |  |  |  | 0.707 µM (≈ 1.68 µg/mL) | 0.707 µM (≈ 1.68 µg/mL) | 12.6 µM (≈ 30.1 µg/mL) | 1.41 µM (≈ 3.37 µg/mL) | 1.41 µM (≈ 3.37 µg/mL) | 1.41 µM (≈ 3.37 µg/mL) | 0.707 µM (≈ 1.68 µg/mL) | 7.07 µM (≈ 16.8 µg/mL) | 14.1 µM (≈ 33.7 µg/mL) | 2.83 µM (≈ 6.74 µg/mL) | 1.41 µM (≈ 3.37 µg/mL) | CC[C@H](C)[C@H](NC(=O)CN)C(=O)NCC(=O)N[C@@H](CCCCN)C(=O)N[C@@H](Cc1ccccc1)C(=O)N[C@@H](CC(C)C)C(=O)N[C@@H](CCCCN)C(=O)N[C@@H](CCCCN)C(=O)N[C@@H](C)C(=O)N[C@@H](CCCCN)C(=O)N[C@@H](CCCCN)C(=O)N[C@@H](Cc1ccccc1)C(=O)NCC(=O)N[C@@H](CCCCN)C(=O)N[C@@H](C)C(=O)N[C@@H](Cc1ccccc1)C(=O)N[C@H](C(=O)N[C@@H](CCCCN)C(=O)N[C@@H](CCSC)C(=O)N[C@@H](CCCCN)C(=O)N[C@@H](CCCCN)C(N)=O)C(C)C [GIGKFLKKAKKFGKAFVKMKK] |

Reference: DBAASP
